Data published in patent publication US20100035257A1 (GENERAL HOSPITAL, published 2010).
Residue numbers refer to the chain shown, from its start.

Experiments:
[1] = test system: MCF-10A cells; test: Chemosensitivity assay (MTT cell viability); assay type: cell-based, human; conditions: for effect of ectopic TAp73β expression on sensitivity: retroviral TAp73β vs control vector
Protocol: (§1) Chemosensitivity assay. Dose-response curves and IC50 values were determined using the methyl thiazolyl tetrazolium (MTT) cell viability assay as described previously (52). Cells were seeded into 96-well microtiter plates for 24 hours at a density of 5×10^3 per well. Serial drug dilutions were prepared in medium immediately before each assay and viable cell masses following 3 days or 5 days of drug exposure were determined by cell-mediated MTT reduction. Cell growth as well as drug activity were determined by measuring absorbance at 550 nm using an Anthos Labtec systems plate reader.

[2] = test system: HCC-1937 cells; test: Chemosensitivity assay (MTT cell viability); assay type: cell-based, human
Protocol: as §1

[3] = test system: MCF-7 cells; test: Chemosensitivity assay (MTT cell viability); assay type: cell-based, human; conditions: TAp73 knockdown
Protocol: as §1

[4] = test system: MDA-MB-468 cells; test: Chemosensitivity assay (MTT cell viability); assay type: cell-based, human
Protocol: as §1

[5] = test system: PUMA and NOXA; test: QRT-PCR of pro-apoptotic effector genes after drug treatment; assay type: cell-based, human
Protocol: ORT-PCR analysis. Total RNA from cells was extracted using STAT-60 RNA isolation solution (Tel-Test Inc., Friendswood, USA) according to manufacturer's protocol. First-strand cDNA was synthesized from total RNA using random hexamer primers and the SuperScript II system for RT-PCR (Invitrogen). Gene expression levels were measured by real-time QRT-PCR using the iQ SYBR Green Supermix reagent (Bio-Rad) and an OPTICON™ real-time PCR detector system (MJ Research). Data analysis was performed using OPTICON MONITOR™ Analysis Software V1.08 (MJ Research). The expression of each gene was normalized to GAPDH or B2M as a reference. The relative copy numbers were calculated from an 8-point standard curve generated from a ten fold serial dilution of full length cDNA constructs as described previously (15).
Specific forward and reverse primers (respectively) for ΔNp63 were: 5′-[…]-3′ and 5′-[…]-3′; for TAp63 were 5′-[…]-3′ and 5′-[…]-3′; for TAp73 were 5′-[…]-3′ and […]-3′; for ΔNp73 were 5′-[…]-3′ and 5′-[…]-3′; for GAPDH were: 5′-[…]-3′ and 5′-[…]-3′ and for detection of B2M were 5′-[…]-3′ and 5′-[…]-3′. The conditions for all QRT-PCR reactions were: 3 min at 94° C., followed by 40 sec at 94° C., 40 sec at 60° C. and 25 sec at 72° C. for 40 cycles. All PCR products were confirmed by the presence of a single-peak upon melting-curve analysis and by gel electrophoresis. No-template (water) reaction mixtures and “no reverse transcriptase” mixtures were performed on all samples as negative controls. All experiments were performed in duplicate.

[6] = test system: human breast cancer-derived cell lines; test: p73/p63 biomarker and in vitro cisplatin sensitivity; assay type: cell-based; conditions: Biomarker Positive cell lines
Protocol: as §1
Correlation of DNp63/TAp73 biomarker expression and cisplatin sensitivity in vitro. The inventors next established the threshold for DNp63/TAp73 biomarker expression that reflected the biochemcially-defined cisplatin sensitivity pathway. The inventors defined biomarker positivity as a DNp63/TAp73 ratio >2, a value that corresponds to the molar ratio of DNp63 required to inactivate essentially all (>99%) pro-apoptotic TAp73 through DNp63/TAp73 hetero-tetramer formation. The inventors assessed the ability of this defined biomarker threshold to predict cisplatin sensitivity in a limited number of human breast cancer-derived cell lines. As shown below in Table 2, the positively for the biomarker correlated with cisplatin sensitivity in these cells. […]

[7] = test system: TAp73; test: IP/immunoblot for p73 tyrosine phosphorylation
[8] = test system: ΔNp63α/TAp73 complex; test: Co-immunoprecipitation of the ΔNp63α/TAp73 complex
[9] = target: T1, wild-type TAp73α (retrovirally expressed in MCF-10A cells) (human, UniProt O15350 1-636); test: co-IP, MCF-10A cells, untreated
T1 construct: Ectopic wild-type TAp73α expressed via retrovirus in MCF-10A cells; It is tyrosine phosphorylated after cisplatin treatment; Construct limits and tags are not described; also called retroviral TAp73α
T1 sequence: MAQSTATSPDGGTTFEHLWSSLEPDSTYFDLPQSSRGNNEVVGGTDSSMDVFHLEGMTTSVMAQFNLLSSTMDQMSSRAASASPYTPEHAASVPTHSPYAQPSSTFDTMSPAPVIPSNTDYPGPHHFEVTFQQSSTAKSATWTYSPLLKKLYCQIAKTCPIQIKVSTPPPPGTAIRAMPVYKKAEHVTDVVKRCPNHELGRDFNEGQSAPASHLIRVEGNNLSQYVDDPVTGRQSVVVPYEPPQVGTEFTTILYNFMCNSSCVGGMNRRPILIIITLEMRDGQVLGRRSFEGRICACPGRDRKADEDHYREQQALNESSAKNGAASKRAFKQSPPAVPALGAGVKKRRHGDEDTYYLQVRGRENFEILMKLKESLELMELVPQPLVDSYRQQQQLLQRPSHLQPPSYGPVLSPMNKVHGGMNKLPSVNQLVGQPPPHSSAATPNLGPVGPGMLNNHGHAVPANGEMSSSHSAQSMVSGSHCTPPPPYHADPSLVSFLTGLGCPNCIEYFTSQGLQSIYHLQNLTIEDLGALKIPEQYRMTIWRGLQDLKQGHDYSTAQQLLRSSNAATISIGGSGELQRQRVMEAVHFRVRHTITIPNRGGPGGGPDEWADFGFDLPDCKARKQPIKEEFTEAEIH

[10] = target: T2, Y99F TAp73α (human, UniProt O15350 1-636); test: IP for p63 or p73 with immunoblot, MCF-10A cells with retroviral Y99F TAp73α, after cisplatin
T2 construct: Expressed via retrovirus in MCF-10A cells; also called site-specific Y99F mutant TAp73α
T2 sequence: T1 sequence with Y99F

[11] = MCF-10A cells, cisplatin treatment

In the case of `CC(=O)O[C@H]1C(=O)[C@@]2(C)[C@H]([C@H](OC(=O)c3ccccc3)[C@]3(O)C[C@H](OC(=O)[C@H](O)[C@@H](NC(=O)c4ccccc4)c4ccccc4)C(C)=C1C3(C)C)[C@]1(OC(C)=O)CO[C@@H]1C[C@@H]2O` [paclitaxel], the “effect of ectopic TAp73β expression on sensitivity” value (from here on “effect of ectopic TAp73β expression”) [1] is reported as “did not significantly enhance sensitivity”.

With `N.N.[Cl][Pt][Cl]` [cisplatin, cis-diaminedichloroplatinuim (II)] the IC70 dose ([2]; HCC-1937 cells) was 6.6 µM, the “effect of TAp73 knockdown on the IC50” value ([2]; TAp73-directed lentiviral shRNA vs vector control, HCC-1937) was “more than 10 fold” and the “effect of Y99F TAp73 expression on sensitivity” value [1] was “little, if any, effect”. The “effect of wild-type TAp73 expression on sensitivity” value ([1]; P<0.01) was “significantly increased sensitivity”, the “effect of ectopic TAp73β expression” value [1] was “significantly increased the sensitivity” and the “TAp73 as mediator of sensitivity” value [3] was “not a mediator of sensitivity”. The “effect of TAp73 knockdown on the IC50” value ([4]; TAp73-directed lentiviral shRNA vs vector control, MDA MB-468) was “more than 10 fold”, the “induction of PUMA and NOXA” value ([5]; HCC-1937 cells, following treatment) was “robustly induced” and the “time to TAp73-dependent transcription of PUMA and NOXA” value ([5]; after cisplatin treatment) was at most 2 h. The “Percent Sensitive” value [6] was 57% ( 4/7), the “tyrosine phosphorylation of p73” value ([7]; HCC-1937 and MB-468 cells, maximal at 6 hours) was “tyrosine phosphorylation of p73 was observed” and the “phosphorylation of Y99F TAp73” value [7, 11] was “little detectable phosphorylation”. The “phosphorylation of ectopic wild-type TAp73” value [7, 11] was “strongly phosphorylated”, the “dissociation of Y99F TAp73 from ΔNp63α” value ([8]; MCF-10A cells, 6 hours) was “essentially no dissociation” and the “dissociation of ΔNp63α from wild-type TAp73” value ([8]; MCF-10A cells, 6 hours) was “substantial dissociation”. For the same molecule, the “dissociation of the ΔNp63α/TAp73 complex” value ([8]; endogenous proteins, breast cancer cells, following treatment) was “substantial dissociation”.

`COc1cccc2c1C(=O)c1c(O)c3c(c(O)c1C2=O)C[C@@](O)(C(=O)CO)C[C@@H]3O[C@H]1C[C@H](N)[C@H](O)[C@H](C)O1` [doxorubicin] was tested, and the “effect of ectopic TAp73β expression” value [1] was “did not significantly enhance sensitivity”, the “induction of other pro-apoptotic effectors” value ([5]; equally toxic concentration) was “no significant induction” and the “increase in PUMA” value ([5]; equally toxic concentration as cisplatin) was 2 fold.

`Cc1ccc(NC(=O)c2ccc(CN3CCN(C)CC3)cc2)cc1Nc1nccc(-c2cccnc2)n1` [STI-571, Imatinib] was tested, and the cell proliferation ([2]; HCC-1937, at the dose used in these assays) was “did not affect”, the “rescue from cell death induced by cisplatin” value ([2]; pretreatment, then cisplatin, HCC-1937) was “substantial rescue” and the cell proliferation ([4]; MDA-MB-468, at the dose used in these assays) was “did not affect”. For the same molecule, the “rescue from cell death induced by cisplatin” value ([4]; pretreatment, then cisplatin, MDA-MB-468) was “substantial rescue”, the “baseline NOXA expression” value ([5]; HCC-1937 and MDA-MB-468 cells) was “no effect” and the “p73-dependent induction of NOXA following cisplatin treatment” value ([5]; pretreatment, HCC-1937 and MDA-MB-468 cells, 6 hours) was “blocked”.

B1: ΔNp63α (other)
chain: MLYLENNAQTQFSEPQYTNLGLLNSMDQQIQNGSSSTSPYNTDHAQNSVTAPSPYAQPSSTFDALSPSPAIPSNTDYPGPHSFDVSFQQSSTAKSATWTYSTELKKLYCQIAKTCPIQIKVMTPPPQGAVIRAMPVYKKAEHVTEVVKRCPNHELSREFNEGQIAPPSHLIRVEGNSHAQYVEDPITGRQSVLVPYEPPQVGTEFTTVLYNFMCNSSCVGGMNRRPILIIVTLETRDGQVLGRRCFEARICACPGRDRKADEDSIRKQQVSDSTKNGDGTKRPFRQNTHGIQMTSIKKRRSPDDELLYLPVRGRETYEMLLKIKESLELMQYLPQHTIETYRQQQQQQHQHLLQKQTSIQSPSSYGNSSPPLNKMNSMNKLPSVSQLINPQQRNALTPTTIPDGMGANIPMMGTHMPMAGDMNGLSPTQALPPPLSMPSTSHCTPPPPYPTDCSIVSFLARLGCSSCLDYFTTQGLTTIYQIEHYSMDDLASLKIPEQFRHAIWKGILDHRQLHEFSSPSHLLRTPSSASTVSVGSSETRGERVIDAVRFTLRQTISFPPRDEWNDFNFDMDARRNKQQRIKEEGE
notes: The text mentions hetero-tetramers with TAp73, but the stoichiometry was not measured; also called DNp63a; DNp63α
B1: binds [9]; binds [10].
